Source: patent US11912701B2, “Protein kinase inhibitors for promoting liver regeneration or reducing or preventing hepatocyte death” (HEPAREGENIX GMBH, priority 2018, dated 2024)

What was measured:
Format in all cases: biochemical
MKK4 = molecular target: T1, MKK4 (Homo sapiens, UniProt P45985); assay: 33PanQinase enzyme assay, MKK4; conditions: assay 'IC50'; for IC50: read-out: Potency MKK4 (IC50)
T1 construct: purchased ProQinase GmbH, Freiburg, Germany (33PanQinase Assay Service)
T1 sequence (P45985 1-399): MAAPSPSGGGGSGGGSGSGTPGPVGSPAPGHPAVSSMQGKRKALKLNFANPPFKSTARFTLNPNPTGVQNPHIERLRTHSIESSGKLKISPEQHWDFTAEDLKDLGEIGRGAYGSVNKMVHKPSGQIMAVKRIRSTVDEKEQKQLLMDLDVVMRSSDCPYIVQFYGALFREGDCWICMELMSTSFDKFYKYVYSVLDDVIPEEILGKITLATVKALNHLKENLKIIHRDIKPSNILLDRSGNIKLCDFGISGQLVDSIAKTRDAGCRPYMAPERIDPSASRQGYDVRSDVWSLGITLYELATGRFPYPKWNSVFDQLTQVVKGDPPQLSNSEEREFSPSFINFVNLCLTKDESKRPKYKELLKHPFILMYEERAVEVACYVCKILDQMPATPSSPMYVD
How it was run: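 Radiometric 33PanQinase assay: kinase, substrate, ATP and compound in standard buffer, 60 min at 30 °C; 33Pi incorporation read by scintillation counting.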

BRaf = molecular target: T2, BRaf (Homo sapiens, UniProt P15056); assay: 33PanQinase enzyme assay, BRaf; conditions: ratio IC50(BRaf)/IC50(MKK4)
T2 construct: purchased ProQinase GmbH, Freiburg, Germany (33PanQinase Assay Service)
How it was run: (§1)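 Radiometric 33PanQinase format: kinase with substrate, ATP and compound (added in 10% DMSO stock) incubated 60 min at 30° C, stopped with 2% H3PO4, ^33Pi incorporation counted by scintillation. Single-concentration data given as % residual activity; IC50 by least-squares fit, with selectivity as IC50(off-target)/IC50(MKK4).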

JNK1 = JNK1 (Homo sapiens, UniProt P45983); assay: 33PanQinase enzyme assay, JNK1; set-up: purchased ProQinase GmbH, Freiburg, Germany (33PanQinase Assay Service); conditions: ratio IC50(JNK1)/IC50(MKK4)
How it was run: as §1

MKK7 = molecular target: T3, MKK7 (Homo sapiens, UniProt O14733); assay: 33PanQinase enzyme assay, MKK7; set-up: purchased ProQinase GmbH, Freiburg, Germany (33PanQinase Assay Service); conditions: ratio IC50(MKK7)/IC50(MKK4)
T3 sequence (O14733 1-419): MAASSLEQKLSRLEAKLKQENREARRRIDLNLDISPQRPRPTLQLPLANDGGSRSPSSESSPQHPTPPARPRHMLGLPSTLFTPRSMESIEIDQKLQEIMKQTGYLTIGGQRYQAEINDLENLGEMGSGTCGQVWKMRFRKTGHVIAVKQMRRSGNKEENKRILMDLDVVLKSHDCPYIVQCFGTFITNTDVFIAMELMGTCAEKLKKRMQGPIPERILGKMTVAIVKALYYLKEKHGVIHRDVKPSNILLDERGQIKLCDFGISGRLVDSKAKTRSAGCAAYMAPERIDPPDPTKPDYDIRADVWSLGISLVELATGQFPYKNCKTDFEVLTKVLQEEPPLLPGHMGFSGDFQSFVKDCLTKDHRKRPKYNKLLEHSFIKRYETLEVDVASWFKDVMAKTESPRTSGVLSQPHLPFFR
How it was run: as §1

T2 sequence (P15056 whole entry, species assumed): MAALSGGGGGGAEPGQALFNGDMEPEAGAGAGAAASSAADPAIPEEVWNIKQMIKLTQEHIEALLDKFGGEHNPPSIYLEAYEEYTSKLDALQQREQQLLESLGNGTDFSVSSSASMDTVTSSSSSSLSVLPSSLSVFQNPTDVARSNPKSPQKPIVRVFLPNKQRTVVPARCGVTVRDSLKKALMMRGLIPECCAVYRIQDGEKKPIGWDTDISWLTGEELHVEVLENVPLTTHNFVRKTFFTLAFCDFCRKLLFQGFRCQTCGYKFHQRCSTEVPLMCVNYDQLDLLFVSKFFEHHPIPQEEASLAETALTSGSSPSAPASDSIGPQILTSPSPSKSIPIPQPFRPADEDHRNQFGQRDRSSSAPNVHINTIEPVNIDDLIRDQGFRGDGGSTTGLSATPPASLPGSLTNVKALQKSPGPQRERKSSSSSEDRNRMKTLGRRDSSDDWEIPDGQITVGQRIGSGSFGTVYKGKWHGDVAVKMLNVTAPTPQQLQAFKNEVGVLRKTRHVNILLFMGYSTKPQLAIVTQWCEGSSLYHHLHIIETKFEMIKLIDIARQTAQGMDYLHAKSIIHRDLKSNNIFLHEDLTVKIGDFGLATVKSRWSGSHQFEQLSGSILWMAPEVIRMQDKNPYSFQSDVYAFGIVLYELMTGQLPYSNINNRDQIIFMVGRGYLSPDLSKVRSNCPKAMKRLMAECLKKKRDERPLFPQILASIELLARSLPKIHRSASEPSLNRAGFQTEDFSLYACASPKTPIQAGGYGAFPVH
Chain of JNK1 (P45983 whole entry): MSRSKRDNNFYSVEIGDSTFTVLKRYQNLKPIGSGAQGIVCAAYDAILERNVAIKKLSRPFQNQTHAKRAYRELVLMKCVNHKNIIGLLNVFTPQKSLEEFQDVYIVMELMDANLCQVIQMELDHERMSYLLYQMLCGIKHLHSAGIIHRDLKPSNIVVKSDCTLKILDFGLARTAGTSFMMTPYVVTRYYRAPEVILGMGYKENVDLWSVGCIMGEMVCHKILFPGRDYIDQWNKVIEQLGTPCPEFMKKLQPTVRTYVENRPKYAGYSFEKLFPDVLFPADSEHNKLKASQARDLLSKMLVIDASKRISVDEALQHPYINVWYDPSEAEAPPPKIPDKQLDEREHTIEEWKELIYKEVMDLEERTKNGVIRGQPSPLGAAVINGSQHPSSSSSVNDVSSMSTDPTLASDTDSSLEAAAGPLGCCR

For CCCS(=O)(=O)Nc1c(F)ccc(C(=O)c2c[nH]c3ncc(-c4ccc(F)cc4C)cc23)c1F [Example 217, N-(2,6-difluoro-3-(5-(4-fluoro-2-methylphenyl)-1H-pyrrolo[2,3-b]pyridine-3-carbonyl)phenyl)propane-1-sulfonamide], the IC50 (MKK4) was < 0.1 µM, the “Selectivity Braf, IC50(off-target)/IC50(MKK4)” value (“Selectivity Braf” for short) (BRaf) was “+++ (IC50(off-target)/IC50(MKK4) > 100)” and the “Selectivity JNK1, IC50(off-target)/IC50(MKK4)” value (shortened to “Selectivity JNK1”) (JNK1) was “+++ (IC50(off-target)/IC50(MKK4) > 100)”. For the same compound, the “Selectivity IVIKK7, IC50(off-target)/IC50(MKK4)” value (“Selectivity IVIKK7” below) (MKK7) was “+++ (IC50(off-target)/IC50(MKK4) > 100)”.
For CCCS(=O)(=O)Nc1c(F)ccc(C(=O)c2c[nH]c3ncc(-c4ccc(-c5nnn[nH]5)cc4)cc23)c1F [Example 219, N-(3-(5-(4-(1H-tetrazol-5-yl)phenyl)-1H-pyrrolo[2,3-b]pyridine-3-carbonyl)-2,6-difluorophenyl)propane-1-sulfonamide], the “Potency MKK4 (IC50)” value (MKK4) was “++·+”, the “Selectivity Braf” value (BRaf) was “+++ (IC50(off-target)/IC50(MKK4) > 100)” and the “Selectivity JNK1” value (JNK1) was “++ (100 ≥ IC50(off-target)/IC50(MKK4) > 10)”. The “Selectivity IVIKK7” value (MKK7) was “+++ (IC50(off-target)/IC50(MKK4) > 100)”.
For CCCS(=O)(=O)Nc1c(F)ccc(C(=O)c2c[nH]c3ncc(-c4ccc(S(N)(=O)=O)cc4)cc23)c1F [Example 220, 4-(3-(2,4-difluoro-3-(propylsulfonamido)benzoyl)-1H-pyrrolo[2,3-b]pyridin-5-yl)benzenesulfonamide], the IC50 (MKK4) was < 0.1 µM, the “Selectivity Braf” value (BRaf) was “++ (100 ≥ IC50(off-target)/IC50(MKK4) > 10)” and the “Selectivity JNK1” value (JNK1) was “++ (100 ≥ IC50(off-target)/IC50(MKK4) > 10)”. The “Selectivity IVIKK7” value (MKK7) was “+++ (IC50(off-target)/IC50(MKK4) > 100)”.
CCCS(=O)(=O)Nc1c(F)ccc(C(=O)c2c[nH]c3ncc(-c4ccc(F)cc4Cl)cc23)c1F [Example 221, N-(3-(5-(2-chloro-4-fluorophenyl)-1H-pyrrolo[2,3-b]pyridine-3-carbonyl)-2,6-difluorophenyl)propane-1-sulfonamide] was tested, and the IC50 (MKK4) was < 0.1 µM, the “Selectivity Braf” value (BRaf) was “+++ (IC50(off-target)/IC50(MKK4) > 100)” and the “Selectivity JNK1” value (JNK1) was “++ (100 ≥ IC50(off-target)/IC50(MKK4) > 10)”. For the same compound, the “Selectivity IVIKK7” value (MKK7) was “+++ (IC50(off-target)/IC50(MKK4) > 100)”.
For CCCS(=O)(=O)Nc1c(F)ccc(C(=O)c2c[nH]c3ncc(-c4ccc(C(=O)O)cc4)cc23)c1F [Example 222, 4-(3-(2,4-difluoro-3-(propylsulfonamido)benzoyl)-1H-pyrrolo[2,3-b]pyridin-5-yl)benzoic acid], the IC50 (MKK4) was < 0.1 µM, the “Selectivity Braf” value (BRaf) was “+++ (IC50(off-target)/IC50(MKK4) > 100)” and the “Selectivity JNK1” value (JNK1) was “++ (100 ≥ IC50(off-target)/IC50(MKK4) > 10)”. For the same compound, the “Selectivity IVIKK7” value (MKK7) was “+++ (IC50(off-target)/IC50(MKK4) > 100)”.
For CCCS(=O)(=O)Nc1c(F)ccc(C(=O)c2c[nH]c3ncc(-c4cccc(C(=O)O)c4)cc23)c1F [Example 223, 3-(3-(2,4-difluoro-3-(propylsulfonamido)benzoyl)-1H-pyrrolo[2,3-b]pyridin-5-yl)benzoic acid], the IC50 (MKK4) was < 0.1 µM, the “Selectivity Braf” value (BRaf) was “+ (10 ≥ IC50(off-target)/IC50(MKK4) > 3)” and the “Selectivity JNK1” value (JNK1) was “++ (100 ≥ IC50(off-target)/IC50(MKK4) > 10)”. The “Selectivity IVIKK7” value (MKK7) was “+++ (IC50(off-target)/IC50(MKK4) > 100)”.
CCCS(=O)(=O)Nc1c(F)ccc(C(=O)c2c[nH]c3ncc(-c4ccccc4C(=O)O)cc23)c1F [Example 224, 2-(3-(2,4-difluoro-3-(propylsulfonamido)benzoyl)-1H-pyrrolo[2,3-b]pyridin-5-yl)benzoic acid] was tested, and the IC50 (MKK4) was 1 to 10 µM, the “Selectivity Braf” value (BRaf) was “◯ (3 ≥ IC50(off-target)/IC50(MKK4))” and the “Selectivity JNK1” value (JNK1) was “◯ (3 ≥ IC50(off-target)/IC50(MKK4))”. The “Selectivity IVIKK7” value (MKK7) was “++ (100 ≥ IC50(off-target)/IC50(MKK4) > 10)”.
With CCCS(=O)(=O)Nc1c(F)ccc(C(=O)c2c[nH]c3ncc(-c4ccc(Cl)cc4C)cc23)c1F [Example 225, N-(3-(5-(4-chloro-2-methylphenyl)-1H-pyrrolo[2,3-b]pyridine-3-carbonyl)-2,6-difluorophenyl)propane-1-sulfonamide] the IC50 (MKK4) was < 0.1 µM, the “Selectivity Braf” value (BRaf) was “+++ (IC50(off-target)/IC50(MKK4) > 100)” and the “Selectivity JNK1” value (JNK1) was “++ (100 ≥ IC50(off-target)/IC50(MKK4) > 10)”. The “Selectivity IVIKK7” value (MKK7) was “+++ (IC50(off-target)/IC50(MKK4) > 100)”.
With CCCCS(=O)(=O)Nc1c(F)ccc(C(=O)c2c[nH]c3ncc(-c4ccc(OC)cc4Cl)cc23)c1F [Example 226, N-(3-(5-(2-chloro-4-methoxyphenyl)-1H-pyrrolo[2,3-b]pyridine-3-carbonyl)-2,6-difluorophenyl)butane-1-sulfonamide] the IC50 (MKK4) was < 0.1 µM, the “Selectivity Braf” value (BRaf) was “+++ (IC50(off-target)/IC50(MKK4) > 100)” and the “Selectivity JNK1” value (JNK1) was “++ (100 ≥ IC50(off-target)/IC50(MKK4) > 10)”. The “Selectivity IVIKK7” value (MKK7) was “+++ (IC50(off-target)/IC50(MKK4) > 100)”.
For CCCCS(=O)(=O)Nc1c(F)ccc(C(=O)c2c[nH]c3ncc(-c4ccc(F)cc4C)cc23)c1F [Example 227, N-(2,6-difluoro-3-(5-(4-fluoro-2-methylphenyl)-1H-pyrrolo[2,3-b]pyridine-3-carbonyl)phenyl)butane-1-sulfonamide], the IC50 (MKK4) was < 0.1 µM, the “Selectivity Braf” value (BRaf) was “+++ (IC50(off-target)/IC50(MKK4) > 100)” and the “Selectivity JNK1” value (JNK1) was “+++ (IC50(off-target)/IC50(MKK4) > 100)”. The “Selectivity IVIKK7” value (MKK7) was “+++ (IC50(off-target)/IC50(MKK4) > 100)”.
For CCCS(=O)(=O)Nc1c(F)ccc(C(=O)c2c[nH]c3ncc(-c4ccncc4C)cc23)c1F [Example 235, N-(2,6-difluoro-3-(5-(3-methylpyridin-4-yl)-1H-pyrrolo[2,3-b]pyridine-3-carbonyl)phenyl)propane-1-sulfonamide], the IC50 (MKK4) was < 0.1 µM, the “Selectivity Braf” value (BRaf) was “+++ (IC50(off-target)/IC50(MKK4) > 100)” and the “Selectivity JNK1” value (JNK1) was “+++ (IC50(off-target)/IC50(MKK4) > 100)”. The “Selectivity IVIKK7” value (MKK7) was “+++ (IC50(off-target)/IC50(MKK4) > 100)”.
For CCCS(=O)(=O)Nc1c(F)ccc(C(=O)c2c[nH]c3ncc(-c4cnc(OC)nc4OC)cc23)c1F [Example 236, N-(3-(5-(2,4-dimethoxypyrimidin-5-yl)-1H-pyrrolo[2,3-b]pyridine-3-carbonyl)-2,6-difluorophenyl)propane-1-sulfonamide], the IC50 (MKK4) was < 0.1 µM, the “Selectivity Braf” value (BRaf) was “+++ (IC50(off-target)/IC50(MKK4) > 100)” and the “Selectivity JNK1” value (JNK1) was “+++ (IC50(off-target)/IC50(MKK4) > 100)”. The “Selectivity IVIKK7” value (MKK7) was “+++ (IC50(off-target)/IC50(MKK4) > 100)”.
For CCCS(=O)(=O)Nc1c(F)ccc(C(=O)c2c[nH]c3ncc(-c4cnc(Cl)nc4)cc23)c1F [Example 237, N-(3-(5-(2-chloropyrimidin-5-yl)-1H-pyrrolo[2,3-b]pyridine-3-carbonyl)-2,6-difluorophenyl)propane-1-sulfonamide], the “Potency MKK4 (IC50)” value (MKK4) was “+++·”, the “Selectivity Braf” value (BRaf) was “+++ (IC50(off-target)/IC50(MKK4) > 100)” and the “Selectivity JNK1” value (JNK1) was “+++ (IC50(off-target)/IC50(MKK4) > 100)”. For the same compound, the “Selectivity IVIKK7” value (MKK7) was “+++ (IC50(off-target)/IC50(MKK4) > 100)”.
